Several values for one entry are separate records, joined by “and”; a condition that tells them apart may be missing. Identical values can stand only once.
Legend:
Type in all cases: cell-based
[1] = test system: Giardia lamblia trophozoites; assay: Morphological studies of trophozoites (bright-field microscopy, transmission electron microscopy); conditions: at the IC50 concentration, 24 hours; for Morphological effects on trophozoites (bright-field microscopy): Giemsa stain
Method: For bright-field microscopy (BFM), 2x10^6 trophozoites were placed in 1.5 mL vials containing antibiotic-free TYI-S-33 culture medium, with or without metronidazole, tinidazole, albendazole, or the library compounds, at the IC50 concentration values. The trophozoites were incubated for 24 hours/37°C and harvested by chilling in ice bath for 15 minutes and centrifuged at 2,000 x g/5 minutes. The bottom cell was washed three times with PBS, and then, placed in glass slides, fixed with MeOH and stained with Giemsa. Finally, the samples were analyzed by BFM. To identify ultrastructural damage, 1x10^6 trophozoites treated as described before were fixed with 2.5% glutaraldehyde and post-fixed with 1% osmium tetroxide in 0.1 M cacodylate buffer, pH 7.2. Afterward, the samples were dehydrated with sequential increasing of ethanol concentrations and then, embedded in epoxy resin. Ultrathin sections of samples were analyzed in a JEOL-JEM-1200 transmission electron microscope coupled to a CCD GATAN camera in the Unidad de Imagenología del Instituto de Fisiología Celular, UNAM.

[2] = test system: Giardia lamblia trophozoites; assay: In vitro cytotoxicity microassay with XTT viability readout on trophozoites; conditions: for % cell death 100 µM: second set of 20 compounds (Table S10); for % cell death at 12.5 µM (Hits confirmation) / % cell death at 25 µM (Hits confirmation) / % cell death at 50 µM (Hits confirmation) / % cell death at 100 µM (First screening): Table S9; for % cell death 100 µM / % cell death at 100 µM (First screening) / % cell death: 100 µM; for % cell death: first set of 54 compounds (Table S8); for IC50: G. lamblia trophozoites, standard deviation in parenthesis
Method: The cytotoxicity test was performed using sterile 96 well clear flat bottom polystyrene TC-treated microplates (Corning Costar #3596). Every well contained in a triplicate 287.5 µL medium supplemented with a first set of 54 compounds of the collection, control drugs (metronidazole and tinidazole), and negative controls (0.05% DMSO). Afterwards, 12.5 µL of a cell suspension containing 1.6 x 10^7 trophozoites/mL was added to every well to obtain a final number of 2x10^5 cells/well and incubated at 37°C for 24 hours. […] A triplicate of blank was done by filling three wells with only 300 µL culture medium (no cells but DMSO). After that, the plates were chilled for 30 minutes to separate the adhered trophozoites in wells. Later, we transferred 50 µL of this suspension to a second plate containing 250 µL of TYI-S-33 media free of compounds, DMSO or antibiotic per well, and re-cultivated at 37°C for 24 hours. The test was performed by two independent experiments for all compounds.
>The trophozoites viability was evaluated using the 2,3-Bis(2-methoxy-4-nitro-5-sulfophenyl)-sH-tetrazolium-5-carboxianilide inner salt (XTT) assay. Antigiardiasic activity of each compound was expressed as the death percentage, calculated by using the next equation ([Inc, 2020]):
% death=[(Abs. of well with 100% viability−Abs. of well with compound)/(Abs. of well with 100% viability−Abs. of blank well)]X 100
The assay was performed by two independent experiments, where each compound was tested by triplicate.

HaCaT cells = assay: Cytotoxicity assay in human keratinocytes (crystal violet); conditions: for IC50: HaCaT human keratinocytes, standard deviation in parenthesis; for Selectivity Index: IC50 HaCaT/IC50 Trophozoites
Method: The in vitro cytotoxicity evaluation of compounds was assayed in immortalized human keratinocytes cell line (HaCat). Briefly, cell cultures were grown in DMEM-F12 media supplemented with 10% decomplemented fetal bovine serum, at 37°C and 5% CO2. Before to test, cells were harvested by centrifugation at 25°C and resuspended in fresh media at 5x10^4 cells/mL. Then, the cells were placed in sterile 24 well clear flat bottom polystyrene TC-treated plates (Corning Costar, #353047) at 3x10^4 cells/well in a volume of 600 µL during 24 hours/37°C at 5% CO2, […] of media was replaced by the same amount of fresh media containing the compounds at concentrations of 100, 90, 80, 70, 60, and 50 µM; DMSO was used as a negative control. The cells were incubated for 48 hours/37°C and 5% CO2. In the end, the cells were washed two times with PBS, fixed and stained by incubating 15 minutes in a solution containing 50% EtOH, 1.75% formaldehyde, 0.75% crystal violet, and 0.25% NaCl. Then, the plates were washed several times with water until removing the colorant excess. After that, the plates were dried for one day at 25°C. Finally, 600 µL of PBS supplemented with 1% SDS was added to wells. The crystal violet incorporated to cells was spectrophotometrically quantified at 570 nm; the IC50 values were calculated from the percentage of death obtained from the different concentrations of assayed compounds. The assay was performed by two independent experiments, each compound was tested by triplicate.

Structure (SMILES)	Ultrastructural effects on trophozoites (transmission electron microscopy) [1]	Morphological effects on trophozoites (bright-field microscopy) [1]	% cell death 25 µM ([2]; 25 µM, second set (Table S10))	% cell death 50 µM ([2]; 50 µM, second set (Table S10))	% cell death 100 µM [2]	% cell death at 12.5 µM (Hits confirmation) [2]	% cell death at 25 µM (Hits confirmation) ([2]; 25 µM)	% cell death at 50 µM (Hits confirmation) ([2]; 50 µM)	% cell death at 100 µM (First screening) [2]	% cell death [2]	IC50 ([2]; Giardia duodenalis)	IC50 (HaCaT cells; 48 hours)	IC50 (HaCaT cells; Homo sapiens, HaCaT, 48 h)	Selectivity Index (HaCaT cells)	IC50 [2]
CCCSc1ccc2nc(NC(=O)OC)[nH]c2c1 [Albendazole]	loss of adhesive disc	an intense deformation of its general structure was observed													
COc1ccc(/C=C2/CC3(C(=O)NC(C)(C)C)c4ccccc4CN3C2=O)cc1OC (stereo not drawn) [EHV-110-106]			8.2%	13.4%	89.2%										
COc1ccc(/C=C2/CC3(C(=O)NC4CCCCC4)c4ccccc4CN3C2=O)cc1OC (stereo not drawn) [EHV-110-154]		affected the nuclear structure and promoted the loss of one nucleus				4.160%	10.752%	94.654%	100.0%	100.0%	30 µM	50.6 µM	50 µM	1.68	
COc1ccc(/C=C2/CC3(C(=O)NC(C)(C)C)c4cc(F)ccc4CN3C2=O)cc1OC (stereo not drawn) [EHV-110-160]		affected the nuclear structure and promoted the loss of one nucleus				2.874%	67% and 66.901%	98.178%	100.0%	100.0%	20 µM		141 µM	7	
COc1ccc(/C=C2/CC3(C(=O)N[C@@H](C)c4ccccc4)c4ccccc4CN3C2=O)cc1OC (stereo partly drawn) [EHV-110-174, 2-((Z)-3,4-dimethoxybenzylidene)-3-oxo-N-((S)-1-phenylethyl)-2,3-dihydro-1H-pyrrolo[2,1-a]isoindole-9b(5H)-carboxamide]	damaged the cellular nuclei inducing chromatin condensation and conferring to it a speckled pattern	the cells are translucent and swelling, with shortening of flagella but without general morphological deformation					98.298%	98.312%	100.0%	100.0%	11 µM		130 µM	12	10.9 µM
Cc1ncc([N+](=O)[O-])n1CCO [Metronidazole, reference compound]	without apparent morphologic changes	provoked cell swelling and the voiding of cytoplasmic contents making the cells translucent			100.1%	86.562%			100.0%	100.0%	2.6 µM		71.9 µM	27.6	
CCS(=O)(=O)CCn1c([N+](=O)[O-])cnc1C [Tinidazole, reference compound]		provoked cell swelling and the voiding of cytoplasmic contents making the cells translucent			100.7%	98.499%			100.0%	100.0%	1.3 µM		60.9 µM	46	

— paper PMC8790063, “Discovery of Benzopyrrolizidines as Promising Antigiardiasic Agents” (Frontiers in Cellular and Infection Microbiology, 2022)
